Data from patent publication US20100184819A1, “METHOD FOR REDUCING INTRACRANIAL PRESSURE” (priority 2007, published 2010).

What was measured:
[1] = system: sheep model of diffuse traumatic brain injury; assay: Brain tissue oxygenation (PbtO2) in the sheep model of diffuse traumatic brain injury; assay type: in vivo
Text: (§1) Briefly, 2-year-old male Merino sheep were impacted in the left temporal region by a humane stunner. Sheep were continuously anesthetized and ventilated using 2.5% isoflurane in oxygen (4 L/min). Animals were then placed into a prone sphinx position, and restrained to the table, leaving the neck and head mobile relative to the body. Impact injury was induced at the midpoint between the left supraorbital process and the left external auditory meatus using a Captive humane bolt stunner armed with a number 7 red charge (model KML, Karl Schermer & Co., Germany). The injury produced by this method has been fully characterised, and mimics that seen in human TBI victims. (Lewis, S. B., Finnie, J. W., Blumbergs, P. C., Scott, G., Manavis, J. Brown, C., Reilly, P. L., Jones, N. R., McLean, A. J. (1996) A head impact model of early axonal injury in the sheep. J Neurotrauma 13, 505-514.)
The injury was carried out in sheep as previously described. In addition to the burr hole for ICP monitoring, a second burr hole 1 cm lateral to the sagittal midline and over the left fronto-parietal suture allowed insertion of the distal end of a LICOX® PbtO2 probe to a depth of 2 cm. The probe was attached to a LICOX® brain tissue oxygen monitoring system (Integra, USA) for digital recording. After insertion of the probes, both burr holes were sealed using bone wax. ICP and PbtO2 was recorded every 30 min for a period of 4 hours.

[2] = system: blood brain barrier permeability after injury; assay: Attenuation of blood brain barrier permeability after injury (dose finding); assay type: in vivo, rat; conditions: intravenous, 30 min after induction of injury
Protocol: N-acetyl-tryptophan was dissolved in sterile, normal saline, and administered by intravenous injection at 30 min after induction of injury. […] The optimal dose, based on the ability of the drug to attenuate blood brain barrier permeability after injury, was 2.5 mg/kg.

aquaporin 4 (AQP-4) = assay: Perivascular AQP-4 immunostaining (electron microscopy) after diffuse traumatic brain injury; assay type: in vivo; conditions: rat diffuse TBI, intravenous injection at 30 min after injury, 5 h after injury
Text: We decided to study the water channels associated with the cerebral vasculature, and in particular aquaporin 4 (AQP-4), in order to see whether there were any changes in the expression of these channels. For these studies, a rat model was used, and raised ICP was induced by diffuse traumatic brain injury. In this model, a traumatic brain injury was induced using the impact-acceleration model. Briefly, the impact-acceleration device delivers an accelerating blow centrally on to the dorsal surface of the skull of halothane anesthetized male Sprague-Dawley rats (380-420 g). The point of impact was protected with a stainless steel disc to prevent skull fracture, while the head was subsequently decelerated using either a foam or gel filled cushion. For severe injury, the 450 g brass weight is dropped from a height of 2 metres. The impact results in extensive, diffuse neuropathological damage throughout the brain with associated neurological deficits. Immunohistochemical labelling was used to investigate the expression of aquaporin-4 (FIG. 1). Briefly, electron microscopy of AQP-4 used a rabbit polyclonal antibody (Alpha Diagnostic International, Inc., San Antonio) as the primary antibody, with immunolabelling completed using biotinylated secondary antibody (goat anti-rabbit IgG) and streptavidin-peroxidase complex (Rockland, Gilbertsville, Pa.). […]

[3] = system: sheep model of diffuse traumatic brain injury; assay: Intracranial pressure in the sheep model of diffuse traumatic brain injury; assay type: in vivo; conditions: administered at 30 min after injury
Protocol: Following traumatic injury, intracranial pressure was measured in the sheep using a standard neurosurgical “bolt” and pressure transducer (FIG. 3).
as §1
After injury, animals were stabilised and the heads restrained to the operating table to facilitate insertion of intracranial pressure (ICP) and brain tissue oxygenation (PbtO2) probes between 15 and 30 min after trauma. Following exposure of the skull, a 5.8 mm burr hole was performed at a point 4 cm lateral to the sagittal midline on the ipsilateral side, the dura matter opened and a calibrated Codman Microsensor ICP transducer inserted such that the tip of the sensor was 1.5 cm into the parenchyma of the left parietal lobe. The probe was attached to a Codman ICP Express monitoring system (Codman and Shurtleff Inc., USA) for digital recording.

[4] = system: rat diffuse traumatic brain injury model; assay: ICP after diffuse traumatic brain injury plus hypoxia in the rat; assay type: in vivo; conditions: male Sprague Dawley rats, diffuse TBI + 15 min hypoxia
Protocol: Male Sprague Dawley rats were injured using a diffuse traumatic brain injury model, and then made hypoxic for a period of 15 minutes, before being ventilated on normal air. ICP was monitored using a Codman ICP pressure sensor for the ensuing 4 hours. After injury, ICP increased from a mean of 4.88±0.12 mm Hg to a mean of 9.23±0.28 mm Hg, an increase of 96%. Treatment with the NK1 antagonist, NAT, reduced ICP by a mean value 21%. […] Male Sprague Dawley rats were injured using the widely accepted diffuse traumatic brain injury model, and then made hypoxic for a period of 15 minutes, before being ventilated on normal air. ICP was monitored using a Codman ICP pressure sensor for the ensuing 4 hours. After injury, ICP increased from a mean of 4.88±0.12 mm Hg to a mean of 9.23±0.28 mm Hg, an increase of 96%. Treatment with the NK1 antagonist, NAT, reduced ICP by a mean value 21% (FIG. 6).

[5] = system: rat model of traumatic brain injury; assay: Diffusion weighted imaging of cerebral oedema after severe diffuse traumatic brain injury; assay type: in vivo; conditions: severe diffuse TBI, treatment 30 min after insult, 10^-5 mol/kg, imaged 5 h after injury
Text: After a traumatic injury (left-hand panel), areas of hyperintensity reflect an increased ADC, which at this early time point is indicative of vasogenic edema.
In order to observe whether a substance P receptor antagonist could facilitate the movement of water out of the brain, we carried out nuclear magnetic resonance spectroscopy (NMR) studies using a rat model of traumatic brain injury. Diffusion-weighted NMR images were generated following trauma (FIG. 2, left-hand panel).
Following injury, a number of “brighter” areas are clearly visible within the brain. These “bright” areas correlate with regions where extracellular water is gathering within the brain.

SMILES: CC(=O)N[C@@H](Cc1c[nH]c2ccccc12)C(=O)O [N-acetyl-L-tryptophan]
- time for brain oxygen levels to be back to normal limits ([1]; NK1 receptor antagonist after injury): 3 to 4 h
- effect on brain oxygen levels ([1]; administered at 30 min after injury, listed as N-Acetyl Tryptophan): Restores Oxygen Levels to Normal
- effect on brain oxygen levels ([1]; administered at 30 min after injury, listed as NK1 antagonist): immediate improvement in brain oxygen status
- effect on brain oxygen levels ([1]; administered at 30 min after injury, listed as NK1 receptor antagonist): oxygen levels start to rapidly recover
- time after TBI by which brain oxygen values returned to normal (control) levels ([1]; administered at 30 min after injury, time after TBI): ≤ 4 h
- optimal dose, based on ability to attenuate blood brain barrier permeability after injury [2]: 2.5 mg/kg
- expression of aquaporin-4 (perivascular AQP-4 channels) (aquaporin 4 (AQP-4)): rise in the expression of aquaporin-4 to, or indeed above, pre-injury levels
- expression of aquaporin-4 (perivascular AQP-4 channels) (aquaporin 4 (AQP-4); listed as NAT): rapid restoration of AQP-4 channels
- effect on intracranial pressure (ICP) ([3]; listed as N-Acetyl Tryptophan): Reduces Intracranial Pressure
- effect on intracranial pressure (ICP) ([3]; listed as NK1 antagonist): immediately decrease in ICP
- time for ICP to return to normal (sham) levels after administration ([3]; listed as NK1 antagonist): 3 h
- effect on intracranial pressure (ICP) ([3]; listed as NK1 receptor antagonist): ICP always fell
- time for ICP to return to normal (sham) levels after administration ([3]; listed as NK receptor antagonist): 3 to 4 h
- functional outcome relative to vehicle treated controls [4]: significant improvement in functional outcome
- mean reduction of ICP ([4]; ICP monitored 4 hours): 21%
- cerebral oedema (areas of hyperintensity / water gathering) on diffusion-weighted images [5]: no indication of any water gathering in these areas
- cerebral oedema (areas of hyperintensity / water gathering) on diffusion-weighted images ([5]; listed as NK1 antagonist): clearly reduces areas of hyperintensity
